# Test results as given in article PMC12491715 (Acta Pharmaceutica Sinica. B, 2025).
# Tests used:
# Aqueous stability (UPLC) = type: physicochemical
# Protocol: For the aqueous stability determination, UPLC analyses were performed as described under Chemistry–General Information. The method used a Waters Acquity UPLC® HSS C18 SB column (2.1 mm× 50 mm, 1.8 μm) thermostated at 40 °C, with: injection volume, 5 μL; flow rate, 0.4 mL/min; detector λ, 220 nm; mobile phase A: 0.1% TFA (v/v) in MilliQ water; mobile phase B: MeCN. Gradient: 0–5 min, 20%–100% B; 5–6 min, 20% B.
# Compound stock solutions (100 mmol/L) were prepared in absolute EtOH, while the internal standard (caffeine) was dissolved in PBS (0.1 mg/mL). The aqueous stability solutions were prepared by mixing 1200 μL PBS with internal standard, 150 μL absolute EtOH, and 150 μL compound stock solution in a HPLC vial to give 10 mmol/L compound concentration in PBS/EtOH = 80:20, which was injected immediately and then at hourly intervals for 48 h. The analyte AUCs were normalized on internal standard AUCs and compared with the timepoint zero. For the rate calculation, pseudo-first order kinetics were assumed.
# For investigation of compound 8 stability in an aqueous medium, its stock solution (10,000 mg/L) was prepared in EtOH. 15 μL of the stock solution was mixed with 60 μL of caffeine (2500 mg/L in EtOH) and 1425 μL of the respective aqueous solution/buffer to achieve final concentration of 100 mg/L with 5% ethanol content. The UPLC analysis was carried as described above.
# [1] = test system: caspase-3 activity in SH-SY5Y cells; experiment: Caspase-3 activity in lysates of Aβ1–42-treated cells; type: cell-based, human; conditions: 5 μmol/L compound, 5 μmol/L fibrillar Aβ1–42, 24 h
# Protocol: Cell culture and treatments The human neuroblastoma SH-SY5Y cell line was purchased from American Type Culture Collection (Manassas, VA, USA). Cells were cultured in Advanced Dulbecco’s modified Eagle’s medium (Gibco, Thermo Fisher Scientific, Waltham, MA, USA) supplemented with 10% fetal bovine serum (FBS, Gibco), 2 mmol/L L-glutamine, 50 U/mL penicillin and 50 μg/mL streptomycin (Sigma, St. Louis, MO, USA) in a humidified atmosphere of 95% air and 5% CO2 at 37 °C, and grown to 80% confluence. Prior to cell treatment, complete medium was replaced with serum-reduced medium (i.e., with 2% FBS). Compounds were prepared as a stock solution of 50 mmol/L in DMSO.
# Caspase-3 activity and Western blot analysis The activity of caspases-3 was determined in total cell lysates of the SH-SY5Y cells treated as described. […] Following cell treatment for 24 h, cell lysates were prepared, and the caspase-3 activity was assessed using the fluorescent peptide substrate N-acetyl-L-α-aspartyl-L-α-glutamyl-L-valyl-N-[2-oxo-4-(trifluoromethyl)-2H-1-benzopyran-7-yl]-L-α-asparagine (Ac-DEVD-AFC; Bachem). […] Immediately after the addition of the substrate, fluorescence was monitored continuously for 30 min at an excitation wavelength of 405 nm and an emission wavelength of 535 nm using a Tecan Safire[2] fluorescence microplate reader. […]
structure (smiles),measurement,setting,value
"CCN(CC)C(=O)n1cnc(C2(CC)Cc3ccccc3C2)c1 [Compound 8, N,N-Diethyl-4-(2-ethylindan-2-yl)-1H-imidazole-1-carboxamide]",t1/2 in aqueous solution,"Aqueous stability (UPLC); PBS:EtOH = 80:20, 10 mmol/L, during 48 h",stable
same,% left after 24 h,"Aqueous stability (UPLC); PBS:EtOH = 95:5, 100 mg/L",100.0%
same,% left after 24 h,"Aqueous stability (UPLC); pH 2:EtOH = 95:5, 100 mg/L",99.9%
same,% left after 24 h,"Aqueous stability (UPLC); pH 4:EtOH = 95:5, 100 mg/L",100.0%
same,% left after 24 h,"Aqueous stability (UPLC); pH 6:EtOH = 95:5, 100 mg/L",100.0%
same,% left after 24 h,"Aqueous stability (UPLC); pH 10:EtOH = 95:5, 100 mg/L",97.7%
same,caspase-3 activity after Aβ1–42 treatment,[1],significant reduction
